Experimental data published in patent US11897918B2, “Compositions and methods to increase production” (priority 2014, dated 2024).
Entries after “also recorded” stand apart in the source; their conditions may differ.

Columns and labels:
[1] = tested on: B/Massachusetts/02/2012; experiment: Ambr 250 mL bioreactor, B strain; type: cell-based, influenza B; settings: any of the doses tested, ambr250
Description: FIG. 13 provides a graph showing HA yields in the B strain tested with BYF589 at concentrations as indicated.
FIG. 14 provides a graph showing HA yields in the B strain tested with AFZ077 at concentrations as indicated.
The results were confirmed using 3 different viruses (a high-, medium-, and poor-expressing strains). […] To confirm these findings in a larger-scale system, TD Ambr™ 250 mL bioreactors were employed. Both of the lead compounds (as well as DMSO alone as negative control, and, no compound/no DMSO as double-negative control) were tested with a high- and low-expressing strains to determine if the observed enhancement in the small-scale cultures can be reproduced in a larger-scale system. The following parameters were used: Spent DM134:Fresh PFM (1:3); Virus Strains were A/Victoria/361/2011 (IVR-165) and B/Massachusetts/02/2012; MOI was 10^−5 for A/Victoria IVR-165 and 10^−4 for B/Massachusetts; ICD: 2.0e6-3.0e6 cells/mL; N-1 Process: 1B (no Medium Exchange); and, Harvest Time was 65-72 hours post-infection. HA yields were measured by two methods: RP-HPLC and HA-ELISA. […] Note that the error bars represent one standard deviation from the mean, to illustrate variability of the HA-ELISA assay between assay repeats.

[2] = tested on: MDCK cells; experiment: Cell viability, VI-CELL trypan blue exclusion; type: cell-based
Description: Cell viability assays were performed using MDCK cells treated with 1 uM sulphonamide or DMSO control. Cell viability was monitored over time up to 60 hrs using a VI-CELL machine (Beckman Coulter)(cell viability measured based on trypan blue exclusion). The sulphonamide analog used herein is not a marketed drug, therefore toxicity was conducted to identify cell viability over the course of incubation at the highest tested concentration of 10 μM and 60 hours of contact. […] At least 91% viability is detected in cells treated with sulphonamide.

[3] = tested on: B/Massachusetts/2/2012 (low-expressing); experiment: ambr15 mini-bioreactor and shake flask comparison, B strain; type: cell-based, influenza B; settings: CDM and DM134 media, shake flasks and 15 ml bioreactors
Description: The two lead compounds were further tested in the commercially available small-scale bioreactor system, ambr15™ (TAP Biosystems). The ambr15 system mimics the characteristics of classical bioreactors at microscale (10-15 ml), controlled by an automated workstation, which enables the rapid evaluation of multiple bioreactor cultures at microscale.
To test both lead compounds were tested side-by-side under controlled conditions, with two infection media formulations (DM134 and CDM) and two flu strains, A/Victoria/361/2011 (IVR-165) (high-expressing) and B/Massachusetts/2/2012 (low-expressing). The infection parameters used in the experiment were as follows: seeding density was 1.0×10^6 cells/ml or 2.5×10^6 cells/mL; pH was 7.1+/−0.02 (pH control by dual control with 0.05N NaOH and CO2 gas); DO was 50% (range 50-80%), controlled by O2 gas; agitation was 1000 rpm (local control); temperature was 34.0° C., locally monitored with bioreactor controller probe; vessel type was Spargeless, extended temperature vessels; and, aeration rate during run was 1 mL/min.
The quantification of HA was carried out by ELISA then was subsequently confirmed by HPLC. It was also shown that AFZ077 was able to boost HA yield in the DM134 medium with both low (1×10^6 per mL) and high (2.5×10^6 per mL) infection cell densities in this system. […] Overall, greater enhancement effect seen for low-expressing strains. […]

[4] = biological target: T1, 5HT7 receptor (Canis lupus familiaris, UniProt A0A8I3S709); experiment: Dependence of HA enhancement on 5HT7 receptor activity; type: cell-based; settings: B/Mass in DM134 media, 65 hrs HA yield by ELISA
T1 construct: endogenous in cells; host or cells: MDCK 33016PF suspension cells (inferred)
T1 sequence (A0A8I3S709 entry or part of it): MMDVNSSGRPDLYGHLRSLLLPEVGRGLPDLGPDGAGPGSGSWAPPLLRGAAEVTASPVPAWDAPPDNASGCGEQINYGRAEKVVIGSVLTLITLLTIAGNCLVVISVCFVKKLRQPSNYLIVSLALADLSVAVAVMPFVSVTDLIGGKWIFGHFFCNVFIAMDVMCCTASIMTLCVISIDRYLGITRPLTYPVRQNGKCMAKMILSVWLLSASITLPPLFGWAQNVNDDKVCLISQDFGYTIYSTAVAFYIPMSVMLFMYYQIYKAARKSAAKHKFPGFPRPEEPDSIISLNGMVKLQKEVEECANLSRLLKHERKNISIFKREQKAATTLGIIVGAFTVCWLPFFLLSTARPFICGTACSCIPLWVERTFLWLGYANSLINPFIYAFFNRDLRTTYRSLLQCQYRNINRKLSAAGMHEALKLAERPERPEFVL
Excerpt: FIG. 15 provides a graph showing that Flu HA yield enhancement by AFZ077 is dependent on decreasing activity of the 5HT7 receptor. Flu B strain (B/Mass) in DM134 media; 65 hrs HA yield by ELISA (μg/ml).
Studies based on Formula 8 (e.g., Compound E) were expanded to identify potential compounds that may share certain mechanisms of action, as summarized in Table 5 below.

[5] = tested on: virus-infected host cell culture; type: cell-based, influenza; settings: versus control without compound
[6] = tested on: influenza H3N2 strain IVR-165 (A/Victoria/361/2011); type: cell-based
[7] = tested on: A and B strains; type: cell-based, influenza; settings: DM134 medium, 2.5×10^6 per mL
[8] = 0 and 60 hr, mass spec
[9] = tested on: A/Victoria/361/2011 (IVR-165) (high-expressing); experiment: ambr15 mini-bioreactor and shake flask comparison, A strain; type: cell-based, influenza A H3N2; settings: CDM and DM134 media, shake flasks and 15 ml bioreactors; listed as AFZ077
[10] = tested on: MDCK 33016PF cells; settings: 24 hours; BYF589 1 μM, MEV 100 μM, FTI 0.5 μM, ZA 1 μM, GTI 0.5 μM
[11] = tested on: cellular cholesterol; experiment: Total cellular cholesterol (Amplex Red); type: cell-based
Description: Possible effects of BYF589 as well as various enzyme inhibitors of the pathway on the cell viability and total cellular cholesterol levels were examined. Tested samples included DMSO, BYF589 (1 μM), MEV (100 μM), FTI (0.5 μM), ZA (1 μM) and GTI (0.5 μM).
Free cholesterol is oxidized by cholesterol oxidase to form a cholesterol ketone and H2O2, which then reacts with Amplex Red+HRP to produce the fluorescent product resorufin.

[12] = tested on: influenza in MDCK 33016PF cells; type: cell-based; settings: MEV plus BYF
[13] = tested on: influenza H3N2 virus; settings: MOI of 10^−3, 24 hours post infection; cited from earlier work
[14] = tested on: Subtype A/Texas X223A; type: cell-based, influenza A; settings: 0.05 μM
[15] = tested on: Subtype AH3N2; experiment: SAR study of analogues, HA-ELISA; settings: 0.05 μM, FIG. 7

With `Cc1cccc(S(=O)(=O)N2CCC[C@@H]2CCN2CCC(C)CC2)c1` [Compound E] the “increase in HA yield over the controls” value [1] was “no significant increase in HA yield”, the “impact on cell viability” value ([2]; monitored up to 60 hrs) was “Neither sulphonamide nor pitavastatin had a negative impact on cell viability” and the cell viability ([2]; up to 10 μM and 60 hours of contact) was “At least 91%”. For the same compound, the “HA yield enhancement, low-expressing B strain” value [3] was “boosts HA yield”, the “HA enhancing effect in presence of serotonin (5HT)” value [4] was “can be abrogated by adding serotonin (5HT)” and the “increase in HA yield at 24 hours, compound added at T=2, 4” value [5] was “approximately 4 fold”. For the same compound, the “increase in HA yield at 24 hours, compound added at T=6” value [5] was “no significant increase”, the “increase in HA yield at 24 hours, compound added at time of infection (T=0)” value [5] was “approximately 4 fold” and the “HA yield before the decrease (earlier addition)” value [6] was “about 20 μg/ml”. The “HA yield, compound added 6 hours post infection” value [6] was “about 5 μg/ml”, the “HA yield over original yields, high ICD format with AFZ treatment” value [7] was about 4 fold and the “loss of compound in media or media+MDCK cells” value [8] was “No loss of compounds was observed”. The “HA yield enhancement, high-expressing A strain” value [9] was “much greater enhancement in HA yield; also recorded: Only AFZ077 enhanced yield”.
For `CC(O)(CCO)CC(=O)O` (centres unmarked) [MEV, Mevalonate], the “effect on cell viability” value [10] was “no negative effect on cell viability”, the “cellular cholesterol levels, in combination with BYF” value ([11]; MEV plus BYF) was “does not replenish cellular cholesterol levels” and the “cellular cholesterol levels, compound alone” value ([11]; normalized to DMSO) was “no effect on cellular cholesterol levels”. The “HA yield enhancement, in combination with BYF” value [12] was “reduces HA yield enhancement”.
In the case of `COc1ccc(C2=N[C@@H](c3ccc(Cl)cc3)[C@@H](c3ccc(Cl)cc3)N2C(=O)N2CCNC(=O)C2)c(OC(C)C)c1` [Nutlin-3], the “copies of viral genome in the supernatant compared with control” value [13] is given as “up to nineteen times more copies of viral genome”.
In the case of `CC(C)c1nc(N(C)S(C)(=O)=O)nc(-c2ccc(F)cc2)c1/C=C/[C@@H](O)C[C@@H](O)CC(=O)O` [Rosuvastatin, bis[(E)-7-[4-(4-fluorophenyl)-6-isopropyl-2-[methyl(methylsulfonyl)amino]pyrimidin-5-yl](3R,5S)-3,5-dihydroxyhept-6-enoic acid]], the “HA yield compared with other commercially available statins” value [14] was “did not produce the yield potential of comparative statins”.
For `CC(C)n1c(/C=C/[C@@H](O)C[C@@H](O)CC(=O)O)c(-c2ccc(F)cc2)c2ccccc21` [fluvastatin, (3R, 5S, 6E)-7-[3-(4-fluorophenyl)-1-(propan-2-yl)-1H-indol-2-yl]-3,4-dihydroxyhept-6-enoic acid], the “HA yield compared with pitavastatin” value [15] was “performed even better than pitavastatin”.
